Results from patent US3992446A, “Substituted aminochlorobenzylamino guanidine compounds” (American Cyanamid Company, priority 1975, dated 1976).
Counter-ions that a name gives are not always drawn. Like-named read-outs stand apart in the source and are kept apart here.

What was measured:
Type in all cases: in vivo
[1] = tested on: Eimeria tenella; test: anticoccidial activity against Eimeria tenella in inoculated Peterson Cross Cockerels, medicated diet, survival; details: 168 h; for responders at 15 µg/mL: 15 parts per million in diet; for responders at 120 µg/mL: 120 parts per million in diet; for responders at 20 µg/mL: 20 parts per million in diet
From the text: (§1) For example, these compounds have anticoccidial activity against Eimeria tenella as shown by the following test: The animals were Peterson Cross Cockerels, 7 days old and of approximately equal size and weight. These cockerels were divided into groups and the groups were placed in separate cages with wire floors. Medicated and control diets were then presented to the groups of birds 2 days before inoculation while they were still in uncontaminated quarters. During the entire period of the tests, the birds ate and drank ad libitum. Control groups were maintained on a standard unmedicated commercial type chicken diet. Test groups were maintained on the same standard diet in which a measured concentration of test compound had been incorporated homogeneously. The cockerels were inoculated once orally with sporulated oocysts of Eimeria tenella. The number of oocysts inoculated directly into the crops of all cockerels in the tests was sufficient to produce high mortality in the untreated controls. […] Seven days following inoculation the tests were terminated and the mortality rate was recorded for each group. […] The tests represent very severe laboratory challenges, and lower concentrations than those shown would be effective under practical field conditions.

[2] = tested on: coccidia; test: anti-coccidial activity, comparison with prior art compounds of Lieber et al.
[3] = tested on: E. maxima; test: anticoccidial activity against E. maxima in chickens (survival, weight gain); details: for % Survival / Weight gain: maxima; for Weight gain: 7 days after inoculation
From the text: as §1
(§2) The compounds of the present invention have high activity against other coccidial species in chickens. […] Methods used were essentially identical with those previously cited with appropriate modifications. Weight gains were determined 7 days after single experimental inoculations with the designated species of coccidia.

[4] = tested on: E. acervulina; test: anticoccidial activity against E. acervulina in chickens (survival, weight gain)
From the text: as §1, §2

[5] = tested on: E. mivati; test: anticoccidial activity against E. mivati in chickens (survival, weight gain); details: for % Survival / Weight gain: mivati; for Weight gain: 7 days after inoculation
From the text: as §1, §2

[6] = tested on: E. brunetti; test: anticoccidial activity against E. brunetti in chickens (survival, weight gain); details: for % Survival / Weight gain: brunetti; for Weight gain: 7 days after inoculation
From the text: as §1, §2

[7] = tested on: Eimeria necatrix; test: anticoccidial activity against Eimeria necatrix in chickens (survival, weight gain); details: for % Survival / Weight gain: necatrix; for Weight gain: 7 days after inoculation
From the text: as §1, §2

[8] = 30 parts per million in diet, 7 days after inoculation, read-out: % Survival
[9] = 10 parts per million in diet, 7 days after inoculation, read-out: % Survival

`N=C(NN=Cc1ccc(Cl)cc1)NNCc1ccc(Cl)cc1` [1-(4-Chlorobenzylamino)-3-(4-chlorobenzylideneamino)guanidine] was tested, and the responders at 15 µg/mL ([1]; 7 days after inoculation) was 90% and the responders at 30 µg/mL [1, 8] was 100%.

In the case of `Cl.N=C(NN=Cc1ccc(I)cc1)NN=Cc1ccc(I)cc1` [1,3-Bis(4-iodobenzylideneamino)guanidine Hydrochloride], the “Activity (anti-coccidial)” value ([2]; dosage 30 parts per million) is reported as “active” and the responders at 30 µg/mL [1, 8] is reported as 55%.

For `N=C(NN=Cc1ccc(Cl)c(Cl)c1)NN=Cc1ccc(Cl)c(Cl)c1` [1,3-Bis(3,4-dichlorobenzylideneamino)guanidine Nitrate], the responders at 60 µg/mL ([1]; read-out: % Survival) was 100%.

With `CC(=O)N=C(NN=Cc1ccc(Cl)cc1)NN=Cc1ccc(Cl)cc1` [2-acetyl-1,3-bis(4-chlorobenzylideneamino)guanidine] the responders at 5 µg/mL ([1]; 5 parts per million in diet, 7 days after inoculation, read-out: % Survival) was 67%, the responders at 10 µg/mL [1, 9] was 95% and the responders at 30 µg/mL [1, 8] was 100%.

Work on `N=C(NN=Cc1ccc(C(F)(F)F)cc1)NN=Cc1ccc(C(F)(F)F)cc1` [1,3-Bis(4-trifluoromethylbenzylideneamino)guanidine hydrochloride] yielded a responders at 120 µg/mL ([1]; 7 days after inoculation) of 100%.

Molecule `N=C(NNCc1ccc(Cl)cc1)NNCc1ccc(Cl)cc1` [1,3-bis(4-chlorobenzylamino)guanidine] has a responders at 10 µg/mL [1, 9] of 90%, a responders at 15 µg/mL ([1]; 7 days after inoculation) of 90% and a responders at 20 µg/mL ([1]; 7 days after inoculation) of 100%.

For `N=C(NN=Cc1ccc(Cl)cc1)NN=Cc1ccc(Cl)cc1` [1,3-Bis(4-chlorobenzylideneamino)guanidine], the “protection from poor weight gains due to E. maxima” value ([3]; treated chickens) was “completely protected”, the “protection from poor weight gains due to E. acervulina” value ([4]; treated chickens) was “completely protected” and the “protection from poor weight gains due to E. mivati” value ([5]; treated chickens) was “completely protected”. The “protection from poor weight gains due to E. brunetti” value ([6]; treated chickens) was “completely protected” and the “protection from mortality due to Eimeria necatrix” value ([7]; treated chickens) was “completely protected”.

For `O=Cc1ccc2c(c1)OCO2` [9) piperonal, reference compound], the “Activity (anti-coccidial)” value ([2]; dosage 125 parts per million) was “inactive”.

With `N#Cc1ccc(C=NNC(=N)NN=Cc2ccc(C#N)cc2)cc1` [1,3-Bis(4-cyanobenzylideneamino)guanidine Nitrate] the responders at 30 µg/mL ([1]; read-out: % Survival) was 80% and the responders at 60 µg/mL ([1]; read-out: % Survival) was 100%.

With `N=C(NN=Cc1ccc(Cl)cc1)NN=Cc1ccc(Cl)cc1.O=[N+]([O-])O` [1,3-Bis(4-chlorobenzylideneamino)guanidine nitrate] the “% Survival” value ([4]; acervulina, 45 ppm in diet) was 100%, the Weight gain ([4]; acervulina, 45 ppm in diet, 7 days after inoculation) was 99 % control and the “Activity (anti-coccidial)” value ([2]; dosage 18 parts per million) was “active”. For the same molecule, the responders at 18 µg/mL ([1]; read-out: % Survival) was 77%, the responders at 36 µg/mL ([1]; read-out: % Survival) was 96% and the responders at 54 µg/mL ([1]; read-out: % Survival) was 100%.

With `N=C(NN=Cc1ccc(OC(F)(F)F)cc1)NN=Cc1ccc(OC(F)(F)F)cc1` [1,3-bis(4-Trifluoromethoxybenzylideneamino)guanidine Hydrochloride] the responders at 5 µg/mL ([1]; read-out: % Survival) was 80% and the responders at 10 µg/mL ([1]; read-out: % Survival) was 100%.

`CN(N=Cc1ccc(Cl)cc1)C(=N)N(C)N=Cc1ccc(Cl)cc1` [1,3-Bis(4-chlorobenzylideneamino)-1,3-dimethylguanidine hydrobromide] was tested, and the responders at 30 µg/mL [1, 8] was 100% and the responders at 120 µg/mL ([1]; 7 days after inoculation) was 100%.

For `Cl.N=C(NN=Cc1ccc(Cl)cc1)NN=Cc1ccc(Cl)cc1` [1,3-bis(4-chlorobenzylideneamino)-guanidine hydrochloride], the “% Survival” value ([3]; 15 ppm in diet) was 100%, the Weight gain ([3]; 15 ppm in diet) was 101 % control and the “% Survival” value ([3]; 30 ppm in diet) was 100%. The Weight gain ([3]; 30 ppm in diet) was 95 % control, the “% Survival” value ([3]; 45 ppm in diet) was 100% and the Weight gain ([3]; 45 ppm in diet) was 100 % control. The “% Survival” value ([5]; 15 ppm in diet) was 100%, the Weight gain ([5]; 15 ppm in diet) was 86 % control and the “% Survival” value ([5]; 30 ppm in diet) was 100%. For the same molecule, the Weight gain ([5]; 30 ppm in diet) was 91 % control, the “% Survival” value ([5]; 45 ppm in diet) was 100% and the Weight gain ([5]; 45 ppm in diet) was 100 % control. The “Activity (anti-coccidial)” value ([2]; dosage 8.5 parts per million) was “active”, the “% Survival” value ([6]; 15 ppm in diet) was 100% and the Weight gain ([6]; 15 ppm in diet) was 100 % control. For the same molecule, the “% Survival” value ([6]; 30 ppm in diet) was 100%, the Weight gain ([6]; 30 ppm in diet) was 95 % control and the responders at 8.5 µg/mL ([1]; read-out: % Survival) was 45%. The responders at 17 µg/mL ([1]; read-out: % Survival) was 75% and the responders at 33 µg/mL ([1]; read-out: % Survival) was 100%.

With `N=C(NN=Cc1ccc(Br)cc1)NN=Cc1ccc(Br)cc1.O=[N+]([O-])O` [1,3-Bis(4-bromobenzylideneamino)guanidine Nitrate] the “Activity (anti-coccidial)” value ([2]; dosage 17 parts per million) was “active”, the responders at 17 µg/mL ([1]; read-out: % Survival) was 80% and the responders at 35 µg/mL ([1]; read-out: % Survival) was 95%.

With `O=Cc1ccccc1O` [11) salicylaldehyde, reference compound] the “Activity (anti-coccidial)” value ([2]; dosage 125 parts per million) was “inactive”.

With `N=C(NN=Cc1ccc(Cl)cc1)NN=Cc1ccc(Cl)cc1` [1,3-bis(4-chlorobenzylideneamino)guanidine methosulfate] the “Activity (anti-coccidial)” value ([2]; dosage 20 parts per million) was “active”, the responders at 20 µg/mL ([1]; 7 days after inoculation) was 59% and the responders at 40 µg/mL ([1]; 40 parts per million in diet, 7 days after inoculation) was 90%. The responders at 60 µg/mL ([1]; 60 parts per million in diet, 7 days after inoculation, read-out: % Survival) was 98%, the “% Survival” value ([7]; 15 ppm in diet) was 100% and the Weight gain ([7]; 15 ppm in diet) was 80 % control. For the same molecule, the “% Survival” value ([7]; 30 ppm in diet) was 100% and the Weight gain ([7]; 30 ppm in diet) was 103 % control.

With `CC(=O)c1ccccc1` [14) acetophenone, reference compound] the “Activity (anti-coccidial)” value ([2]; dosage 250 parts per million) was “inactive”.

`N=C(NN=Cc1ccc(F)cc1)NN=Cc1ccc(F)cc1` [1,3-Bis(4-fluorobenzylideneamino)guanidine Nitrate] showed a responders at 93 µg/mL ([1]; read-out: % Survival) of 80%.

`O=Cc1ccccc1O` [12) salicylaldehyde, reference compound] was tested, and the “Activity (anti-coccidial)” value ([2]; dosage 200 parts per million) was “inactive”.
